Laboratory results from ChEMBL document CHEMBL1201862, “PubChem BioAssay data set” (2004).
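Where inhibition never reached the appropriate level, the endpoint shown equals the highest concentration tested. Otherwise, values were interpolated linearly from a five-concentration, 48-hour dose response in 96-well plates. Abbreviation: GI50, concentration required for 50% inhibition of growth.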 Calls of active or inactive are those of the source. Cut-off read from the data, not from the text of the source: active = GI50 up to about 1.1 µM and inactive = higher.

What was measured:
Assay in all cases: NCI-60 cell line screen, 48 h
NCI-H23 = test system: NCI-H23
OVCAR-3 = test system: OVCAR-3
NCI-H460 = test system: NCI-H460
SNB-19 = test system: SNB-19
Hs-578T = test system: Hs-578T
SNB-75 = test system: SNB-75
SK-MEL-5 = test system: SK-MEL-5
DU-145 = test system: DU-145
HT-29 = test system: HT-29
MCF7 = test system: MCF7
HOP-92 = test system: HOP-92
SF-268 = test system: SF-268
OVCAR-8 = test system: OVCAR-8
SW-620 = test system: SW-620
MDA-MB-435 = test system: MDA-MB-435
RPMI-8226 = test system: RPMI-8226
HCT-15 = test system: HCT-15
SR = test system: SR
HOP-62 = test system: HOP-62
CAKI-1 = test system: CAKI-1
K562 = test system: K562
LOX IMVI = test system: LOX IMVI
NCI-H226 = test system: NCI-H226
ACHN = test system: ACHN
T47D = test system: T47D
SF-295 = test system: SF-295
HCT-116 = test system: HCT-116
SN12C = test system: SN12C
HCC 2998 = test system: HCC 2998
Malme-3M = test system: Malme-3M
HL-60 = test system: HL-60
PC-3 = test system: PC-3
COLO 205 = test system: COLO 205
OVCAR-4 = test system: OVCAR-4
UACC-257 = test system: UACC-257
MDA-N = test system: MDA-N
KM12 = test system: KM12
UACC-62 = test system: UACC-62
NCI-H522 = test system: NCI-H522
NCI/ADR-RES = test system: NCI/ADR-RES
OVCAR-5 = test system: OVCAR-5
TK-10 = test system: TK-10
A549 = test system: A549
SK-OV-3 = test system: SK-OV-3
MOLT-4 = test system: MOLT-4
A498 = test system: A498
U-251 = test system: U-251
MDA-MB-231 = test system: MDA-MB-231
CCRF-CEM = test system: CCRF-CEM
SK-MEL-28 = test system: SK-MEL-28
786-0 = test system: 786-0
RXF 393 = test system: RXF 393
IGROV-1 = test system: IGROV-1
SF-539 = test system: SF-539
M14 = test system: M14
EKVX = test system: EKVX
BT-549 = test system: BT-549
SK-MEL-2 = test system: SK-MEL-2
UO-31 = test system: UO-31

N#Cc1sc2c(c1OC(=O)c1ccc(Cl)cc1)c(=O)n(-c1ccccc1)c(=S)n2-c1ccccc1
GI50 (NCI-H23): 21.7 µM (inactive) | GI50 (OVCAR-3): 17.1 µM (inactive) | GI50 (NCI-H460): 16.4 µM (inactive) | GI50 (SNB-19): 21.9 µM (inactive) | GI50 (Hs-578T): 15.6 µM (inactive) | GI50 (SNB-75): 40.8 µM (inactive) | GI50 (SK-MEL-5): 17.1 µM (inactive) | GI50 (DU-145): 25.8 µM (inactive) | GI50 (HT-29): 22.4 µM (inactive) | GI50 (MCF7): 23.1 µM (inactive) | GI50 (HOP-92): 18.5 µM (inactive) | GI50 (SF-268): 23.3 µM (inactive) | GI50 (OVCAR-8): 18.1 µM (inactive) | GI50 (SW-620): 21.2 µM (inactive) | GI50 (MDA-MB-435): 20.6 µM (inactive) | GI50 (RPMI-8226): 17.7 µM (inactive) | GI50 (HCT-15): 15.8 µM | GI50 (SR): 19.1 µM (inactive) | GI50 (HOP-62): 27.7 µM (inactive) | GI50 (CAKI-1): 27.3 µM (inactive) | GI50 (K562): 22 µM (inactive) | GI50 (LOX IMVI): 17.1 µM (inactive) | GI50 (NCI-H226): 26.7 µM (inactive) | GI50 (ACHN): 28.4 µM (inactive) | GI50 (T47D): 24.4 µM (inactive) | GI50 (SF-295): 19.2 µM (inactive) | GI50 (HCT-116): 15.4 µM (inactive) | GI50 (SN12C): 21 µM (inactive) | GI50 (HCC 2998): 21.5 µM (inactive) | GI50 (Malme-3M): 20.4 µM (inactive) | GI50 (HL-60): 19.4 µM (inactive) | GI50 (PC-3): 21.7 µM (inactive) | GI50 (COLO 205): 18.5 µM (inactive) | GI50 (OVCAR-4): 23.3 µM (inactive) | GI50 (UACC-257): 27.3 µM (inactive) | GI50 (MDA-N): 20.3 µM (inactive) | GI50 (KM12): 14.9 µM (inactive) | GI50 (UACC-62): 18.2 µM (inactive) | GI50 (NCI-H522): 0.504 µM (active) | GI50 (NCI/ADR-RES): 23.3 µM (inactive) | GI50 (OVCAR-5): 25.8 µM (inactive) | GI50 (TK-10): 23.3 µM (inactive) | GI50 (A549): 31.4 µM (inactive) | GI50 (SK-OV-3): 29.9 µM (inactive) | GI50 (MOLT-4): 42.3 µM (inactive) | GI50 (A498): 21.5 µM (inactive) | GI50 (U-251): 11.1 µM (inactive) | GI50 (MDA-MB-231): 32.4 µM (inactive) | GI50 (CCRF-CEM): 4.37 µM (inactive) | GI50 (SK-MEL-28): 16.9 µM (inactive) | GI50 (786-0): 20.5 µM (inactive) | GI50 (RXF 393): 19.7 µM (inactive) | GI50 (IGROV-1): 16.7 µM (inactive) | GI50 (SF-539): 20.8 µM (inactive) | GI50 (M14): 20.4 µM (inactive) | GI50 (EKVX): 21 µM (inactive)

CSc1c(C#N)c(O)n(-c2ccc(C)cc2)c(=O)c1C(C)=O
GI50 (NCI-H23): > 100 µM (inactive) | GI50 (OVCAR-3): > 100 µM (inactive) | GI50 (NCI-H460): > 100 µM (inactive) | GI50 (SNB-19): > 100 µM (inactive) | GI50 (Hs-578T): > 100 µM (inactive) | GI50 (SNB-75): > 100 µM (inactive) | GI50 (SK-MEL-5): > 100 µM (inactive) | GI50 (DU-145): > 100 µM (inactive) | GI50 (HT-29): > 100 µM (inactive) | GI50 (MCF7): > 100 µM (inactive) | GI50 (SF-268): > 100 µM (inactive) | GI50 (OVCAR-8): > 100 µM (inactive) | GI50 (SW-620): > 100 µM (inactive) | GI50 (MDA-MB-435): > 100 µM (inactive) | GI50 (RPMI-8226): > 100 µM (inactive) | GI50 (HCT-15): > 100 µM | GI50 (SR): > 100 µM (inactive) | GI50 (BT-549): > 100 µM (inactive) | GI50 (CAKI-1): > 100 µM (inactive) | GI50 (K562): > 100 µM (inactive) | GI50 (LOX IMVI): > 100 µM (inactive) | GI50 (NCI-H226): > 100 µM (inactive) | GI50 (T47D): > 100 µM (inactive) | GI50 (SK-MEL-2): > 100 µM (inactive) | GI50 (HCT-116): > 100 µM (inactive) | GI50 (SN12C): > 100 µM (inactive) | GI50 (HCC 2998): > 100 µM (inactive) | GI50 (Malme-3M): > 100 µM (inactive) | GI50 (HL-60): > 100 µM (inactive) | GI50 (PC-3): > 100 µM (inactive) | GI50 (COLO 205): > 100 µM (inactive) | GI50 (OVCAR-4): > 100 µM (inactive) | GI50 (UACC-257): > 100 µM (inactive) | GI50 (KM12): > 100 µM (inactive) | GI50 (UACC-62): > 100 µM (inactive) | GI50 (NCI-H522): 57.5 µM (inactive) | GI50 (NCI/ADR-RES): > 100 µM (inactive) | GI50 (OVCAR-5): 42.8 µM (inactive) | GI50 (TK-10): > 100 µM (inactive) | GI50 (A549): > 100 µM (inactive) | GI50 (SK-OV-3): > 100 µM (inactive) | GI50 (MOLT-4): > 100 µM (inactive) | GI50 (A498): 51.5 µM (inactive) | GI50 (U-251): > 100 µM (inactive) | GI50 (MDA-MB-231): > 100 µM (inactive) | GI50 (CCRF-CEM): > 100 µM (inactive) | GI50 (SK-MEL-28): > 100 µM (inactive) | GI50 (786-0): > 100 µM (inactive) | GI50 (RXF 393): > 100 µM (inactive) | GI50 (UO-31): 88.7 µM (inactive) | GI50 (IGROV-1): > 100 µM (inactive) | GI50 (SF-539): > 100 µM (inactive) | GI50 (M14): 94.6 µM (inactive) | GI50 (EKVX): > 100 µM (inactive)
